Literature values, collected in US8555875B2, “Inhalation devices and related methods for administration of sedative hypnotic compounds” (Map Pharmaceuticals, Inc., priority 2008, dated 2013).

What was measured:
[1] = system: melatonin receptor MT1/MT2; settings: metabolite MII versus ramelteon
[2] = in vivo
[3] = in vivo; remark: listed apart in the source

Structure (SMILES) | mean functional activity, times lower potency than ramelteon [1] | Duration of Action [2] | Half Life [3]
CC(O)C(=O)NCCC1CCc2ccc3c(c21)CCO3 (centres unmarked) [MII] | 21 times |  | 
Cc1ncc2n1-c1ccc(Cl)cc1C(c1ccccc1F)=NC2 [Midazolam] |  | 4 h | 1.3 to 2.5 h
CCN(CC)CCN1C(=O)CN=C(c2ccccc2F)c2cc(Cl)ccc21 [Flurazepam] |  | 24 to 28 h | 50 to 100 h
CNC1=Nc2ccc(Cl)cc2C(c2ccccc2)=[N+]([O-])C1 [Chlordiazepoxide] |  |  | 7 to 13 h
CN1C(=O)C(O)N=C(c2ccccc2Cl)c2cc(Cl)ccc21 (centres unmarked) [Lormetazepam] |  | 12 to 18 h | 10 h
O=C1CN=C(c2ccccc2)c2cc([N+](=O)[O-])ccc2N1 [Nitrazepam] |  | 24 h | 28 h
O=C1Nc2ccc(Cl)cc2C(c2ccccc2Cl)=NC1O (centres unmarked) [Lorazepam] |  | 12 to 18 h | 9 to 19 h
CN1CCN(C(=O)OC2c3nccnc3C(=O)N2c2ccc(Cl)cn2)CC1 (single isomer, unassigned) [Eszopiclone, 6-(5-chloro-2-pyridyl)-5[(4-methyl-1-piperazinyl)carbonyloxy]-7-oxo-6,7-di hydro-5H-pyrrolo[3,4-b]pyrazine] |  | 8 h | 6 h
CN1C(=O)C(O)N=C(c2ccccc2)c2cc(Cl)ccc21 (centres unmarked) [Temazepam] |  | 12 to 18 h | 
Cc1nnc2n1-c1ccc(Cl)cc1C(c1ccccc1Cl)=NC2 [Triazolam] |  | <6 h | 2 to 4 h
O=C1CN=C(c2ccccc2Cl)c2cc([N+](=O)[O-])ccc2N1 [Clonazepam] |  | 24 to 28 h | 18 to 28 h
Cc1nnc2n1-c1ccc(Cl)cc1C(c1ccccc1)=NC2 [Alprazolam] |  | <6 h | 9 to 14 h
Cc1ccc(-c2nc3ccc(C)cn3c2CC(=O)N(C)C)cc1 [Zolpidem] |  | <4 h | 
CN1C(=O)CN=C(c2ccccc2)c2cc(Cl)ccc21 [Diazepam] |  | 24 to 28 h | 
